# Laboratory results: US5552308A, “CDNA clone of a rat serotonin transporter and protein encoded thereby” (priority 1991, dated 1996)
# Legend:
# [1] = biological target: T1, 5-HT transporter (Rattus norvegicus, UniProt P31652); test: Inhibition of 3H-5-HT uptake in CV-1 cells transfected with the 5-HT transporter cDNA; type: cell-based; conditions: for inhibition of 5-HT uptake (in words): CV-1 cells transfected with 5HTT cDNA
# [2] = tested on: serotonergic neurons; conditions: cited from earlier work
# [3] = tested on: 5-HT transporter; conditions: cited from earlier work
# [4] = biological target: T1, 5-HT transporter; test: 3H-5-HT uptake (saturation kinetics, ion dependence) in CV-1 cells transfected with the 5HTT cDNA; type: cell-based; conditions: read-out: Km of 3H-5-HT uptake; transfected CV-1 cells; 3H-5-HT 0.1 nM to 10 uM; 15 min; mean +/- SEM
# T1 sequence (P31652 whole entry): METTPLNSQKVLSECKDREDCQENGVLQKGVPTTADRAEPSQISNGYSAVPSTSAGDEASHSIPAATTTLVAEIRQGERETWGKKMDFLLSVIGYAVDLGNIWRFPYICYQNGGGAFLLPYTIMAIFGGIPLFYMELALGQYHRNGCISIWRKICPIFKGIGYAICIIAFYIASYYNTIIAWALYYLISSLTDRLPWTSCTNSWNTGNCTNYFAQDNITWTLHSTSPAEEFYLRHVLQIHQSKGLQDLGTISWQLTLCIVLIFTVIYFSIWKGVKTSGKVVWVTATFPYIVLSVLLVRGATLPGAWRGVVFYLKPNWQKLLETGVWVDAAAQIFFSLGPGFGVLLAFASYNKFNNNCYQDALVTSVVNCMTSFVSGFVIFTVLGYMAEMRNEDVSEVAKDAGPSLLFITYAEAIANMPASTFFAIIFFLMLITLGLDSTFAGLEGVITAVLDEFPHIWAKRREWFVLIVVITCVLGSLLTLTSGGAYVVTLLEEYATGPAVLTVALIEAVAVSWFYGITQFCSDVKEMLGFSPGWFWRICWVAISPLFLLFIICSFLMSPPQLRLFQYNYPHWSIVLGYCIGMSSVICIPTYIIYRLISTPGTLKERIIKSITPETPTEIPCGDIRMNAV
smiles,measurement,setting,value
"CNC(C)Cc1ccc2c(c1)OCO2 (racemic) [± MDMA, 3,4-Methylenedioxy-methamphetamine]",Ki,[1],186 ± 27 nM
same,inhibition of 5-HT uptake (in words),[1],potent inhibition of ^3 H-5-HT uptake
same,neurotoxicity to serotonergic neurons (in words),[2],potent neurotoxin of serotonergic neurons which causes irreversible cell degeneration
CC(N)Cc1ccccc1 (stereo not drawn) [Amphetamine],transport by the 5-HT transporter and release of 5-HT (in words),[3],substrates for transport by the 5-HT transporter and stimulate release of 5-HT
"NCCc1c[nH]c2ccc(O)cc12 [^3 H-5-HT, serotonin]",Km,[4],0.529 ± 0.107 µM
COC(=O)[C@H]1[C@@H](OC(=O)c2ccccc2)C[C@@H]2CC[C@H]1N2C [cocaine],inhibition of 5-HT uptake (in words),[1],relatively potent inhibitor of 5-HT uptake
NCCc1ccc(O)c(O)c1 [dopamine],Ki,[1],> 10000 nM
same,inhibition of 5-HT uptake (in words),[1],ineffective at blocking 5-HT uptake
OC1(c2ccc(Cl)cc2)c2ccccc2C2=NCCN21 (stereo not drawn) [mazindol],Ki,[1],548 ± 120 nM
same,inhibition of 5-HT uptake (in words),[1],lower affinity for the 5-HT transporter
NC[C@H](O)c1ccc(O)c(O)c1 [noradrenaline],Ki,[1],> 10000 nM
same,inhibition of 5-HT uptake (in words),[1],ineffective at blocking 5-HT uptake
